US9987256B2, “CFTR corrector for the treatment of genetic disorders affecting striated muscle” (UNIVERSITA' DEGLI STUDI DI PADOVA, priority 2012, dated 2018)
Changes are numbered by the printed parent chain. Where a SMILES comes first, the peptide text is derived from it. The star is where a group is joined. Cbz = O=C(OCc1ccccc1)*

Legend:
D307H CASQ2 mutant = settings: CASQ2 D307H/D307H knock in mouse, systemic administration; cited from earlier work
[1] = molecular target: T1, V247M mutant of alpha-sarcoglycan (Homo sapiens, UniProt Q16586, V247M); test: Confocal immunofluorescence, membrane localization of V247M alpha-sarcoglycan in HEK293 cells; format: cell-based; settings: FIG. 2; HEK293, 24 hours; E 10 μM, D 10 μM, MG132 positive control; not permeabilized cells
T1 construct: expressed in transfected cells; host or cells: HEK 293
T1 sequence (Q16586 24-387 V247M): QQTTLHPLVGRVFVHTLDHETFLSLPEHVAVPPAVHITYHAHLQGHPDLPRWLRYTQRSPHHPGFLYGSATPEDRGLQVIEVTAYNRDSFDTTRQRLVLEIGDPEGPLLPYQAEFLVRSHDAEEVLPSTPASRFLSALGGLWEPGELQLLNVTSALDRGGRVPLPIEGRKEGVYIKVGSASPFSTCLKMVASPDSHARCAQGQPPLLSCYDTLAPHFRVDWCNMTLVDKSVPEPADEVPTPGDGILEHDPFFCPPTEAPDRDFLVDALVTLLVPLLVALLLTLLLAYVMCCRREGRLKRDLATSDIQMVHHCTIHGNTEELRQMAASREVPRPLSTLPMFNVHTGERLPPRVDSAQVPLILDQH
Description: The cellular localization of either the V247M or R98H mutants, upon corrector treatments, has been verified by confocal immunofluorescence.
In the experiment reported in FIG. 2, HEK 293 cells expressing the V247M mutant have been treated for 24 hours with either Compound E (10 μM) or Compound D (10 μM), MG132 (positive control) or DMSO at 1‰ concentration (negative control). At the end of treatments, not permeabilized cells were incubated with a monoclonal antibody specific for an extracellular epitope of α-sarcoglycan in order to mark only the membrane resident α-sarcoglycan. By comparison, cells expressing the wild type form of α-sarcoglycan have also been used.

R164H mutant of SERCA1 = molecular target: T2, R164H mutant of SERCA1 (Bos taurus, UniProt Q0VCY0, R164H); test: Western blot rescue of R164H mutant of SERCA1 in HEK293 cells; format: cell-based, bovine; settings: FIG. 3; HEK293, 24 hours; C 5 μM, B 10 μM, E 10 μM, F 10 μM, A 2 μM, D 10 μM; relative to wild type
T2 construct: expressed in transfected cells; host or cells: HEK 293
T2 sequence (Q0VCY0 whole entry R164H): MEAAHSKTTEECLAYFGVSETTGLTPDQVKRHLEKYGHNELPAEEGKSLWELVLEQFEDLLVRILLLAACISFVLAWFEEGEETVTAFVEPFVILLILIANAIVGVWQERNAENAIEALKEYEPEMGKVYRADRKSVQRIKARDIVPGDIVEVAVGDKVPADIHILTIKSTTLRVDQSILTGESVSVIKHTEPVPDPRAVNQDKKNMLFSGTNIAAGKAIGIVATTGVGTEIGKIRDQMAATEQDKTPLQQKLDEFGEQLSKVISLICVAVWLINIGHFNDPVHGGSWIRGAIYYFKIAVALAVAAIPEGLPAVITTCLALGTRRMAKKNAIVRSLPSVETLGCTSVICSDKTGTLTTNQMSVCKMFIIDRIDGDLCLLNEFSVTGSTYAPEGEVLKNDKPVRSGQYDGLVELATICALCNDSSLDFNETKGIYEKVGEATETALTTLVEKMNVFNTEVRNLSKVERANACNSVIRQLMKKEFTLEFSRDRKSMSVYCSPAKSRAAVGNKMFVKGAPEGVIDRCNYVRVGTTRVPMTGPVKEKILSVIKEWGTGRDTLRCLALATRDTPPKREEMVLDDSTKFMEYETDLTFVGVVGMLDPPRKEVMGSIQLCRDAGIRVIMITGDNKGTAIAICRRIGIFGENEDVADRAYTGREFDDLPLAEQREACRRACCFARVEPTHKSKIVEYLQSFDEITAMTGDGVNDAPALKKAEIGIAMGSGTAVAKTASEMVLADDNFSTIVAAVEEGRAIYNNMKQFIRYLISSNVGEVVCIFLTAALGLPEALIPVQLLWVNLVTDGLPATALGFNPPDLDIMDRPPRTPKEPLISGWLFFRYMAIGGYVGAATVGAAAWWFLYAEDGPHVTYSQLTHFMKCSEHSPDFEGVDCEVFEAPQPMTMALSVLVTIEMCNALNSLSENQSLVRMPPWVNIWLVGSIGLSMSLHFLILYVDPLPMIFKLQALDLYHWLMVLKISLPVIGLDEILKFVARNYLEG
Description: In FIG. 3 are reported the results obtained with HEK 293 cells expressing the R164H mutant of SERCA1 treated for 24 hours with either Compound C 5 μM, Compound B 10 μM, Compound E 10 μM, compound F 10 μM, Compound A 2 μM, compound D 10 μM, MG132 (proteasome inhibitor) 10 μM, used as positive control or the vehicle DMSO at 1‰ concentration, used as negative control. At the end of treatments, cells were lysed and total protein resolved by SDS-PAGE. Western blotting analysis has been performed by using SERCA1 specific antibody and β-actin specific antibody, to normalize loaded proteins. In the upper panel of FIG. 3 is reported a representative Western blotting experiment. The expression of SERCA1 in different samples has been determined by densitometric analysis and indicated as percentage of SERCA 1 content present in wild type expressing cells treated with DMSO.
In FIG. 10 is reported the content of SERCA1 protein present in HEK 293 cells transfected with the R164H mutant of SERCA1 and treated for 24 hours with either Compound H 15 μM, Compound I 10 μM, compound Q 10 μM, Compound R 5 μM, Compound S 15 μM, Compound T 15 μM or the vehicle DMSO at 1‰ concentration, used as negative control. Cells expressing the wild type form of SERCA1 have also been used for comparison. At the end of treatments, cells were lysed and total protein resolved by SDS-PAGE. Western blotting analysis has been performed by using SERCA1 specific antibody and β-actin specific antibody, to normalize loaded proteins. The expression of SERCA1 in different samples has been determined by densitometric analysis and indicated as percentage of SERCA 1 content present in wild type expressing cells. The graph of FIG. 10 reports the average values (+/− standard error) of at least three independent experiments.

[2] = molecular target: T3, R98H mutant of alpha-sarcoglycan (Homo sapiens, UniProt Q16586, R98H); test: Western blot rescue of R98H mutant of alpha-sarcoglycan in HEK293 cell model; format: cell-based; settings: FIG. 1; HEK293, 24 hours; C 5 μM, B 10 μM, E 10 μM, F 10 μM, A 2 μM, D 10 μM; relative to R98H cells treated with DMSO
T3 construct: expressed in transfected cells; host or cells: HEK293
T3 sequence (Q16586 24-387 R98H): T1 sequence (Q16586 24-387 V247M) with R75H, M224V
Description: HEK293 cells expressing different α-SG mutants have been treated with the Compounds A, B, C, D, E, F, H, I, Q, R, S and T according to protocols developed in CF studies [Loo and Clarke 2011; Becq et al 2011, Pedemonte et al 2005; Wang et al 2006]. Concentration and time-dependent recovery of treated mutants have been evaluated by Western blotting. The proteasome inhibitor MG132, at the concentration of 10 μM, or DMSO at 1‰ concentration, have been used as positive and negative control, respectively.
In FIG. 1 the result obtained by treating cells expressing the R98H mutant of α-SG for 24 hours with Compound C 5 μM, Compound B 10 μM, Compound E 10 μM, Compound F 10 μM, Compound A 2 μM, Compound D 10 μM are shown. At the end of treatments, cells were lysed and total proteins resolved by SDS-PAGE. Western blotting has been performed by using α-SG specific antibody and β-actin specific antibody, used to normalize loaded proteins (in FIG. 1, upper panel, a representative experiment is shown). The expression of α-SG in different samples has been determined by densitometric analysis of the western blotting experiments and indicated as percentage of the protein present in cells expressing the R98H mutant treated with DMSO (negative control).
In FIG. 4 the result obtained by treating cells expressing the R98H mutant of α-SG for 24 hours with either Compound H 15 μM, Compound I 10 μM, Compound T 15 μM, Compound A 2 μM, or DMSO at 1‰ concentration, used as negative control, are shown. Cells expressing the wild type form of α-sarcoglycan have been used for comparison. At the end of treatments, cells were lysed and total proteins resolved by SDS-PAGE. Western blotting has been performed by using α-SG specific antibody and β-actin specific antibody, used to normalize loaded proteins (in upper panel of FIG. 4, a representative experiment is shown). The expression of α-SG in different samples has been determined by densitometric analysis of the western blotting experiments and indicated as percentage of the protein present in cells expressing the wild type form of α-sarcoglycan. […] The compounds tested induced the recovery of the R98H mutant to levels that in some cases were even greater than those present in HEK cells expressing the wild type protein.
(§1) In FIG. 5 the result obtained by treating cells expressing the R98H mutant of α-SG for 24 hours with either increasing concentration of Compound R (1, 2.5, 5 μM) or DMSO at 1‰ concentration, used as negative control, are shown. Cells expressing the wild type form of α-sarcoglycan have been used for comparison. At the end of treatments, cells were lysed and total proteins resolved by SDS-PAGE. Western blotting has been performed by using α-SG specific antibody and β-actin specific antibody, used to normalize loaded proteins (in upper panel of FIG. 5, a representative experiment is shown). The expression of α-SG in different samples has been determined by densitometric analysis of western blotting experiments and indicated as percentage of the protein present in cells expressing the wild type form of α-sarcoglycan.
as §1, with “6” for “5”, “Q (5, 10 μM), increasing concentration of Compound S (10, 15” for “R (1, 2.5, 5”, “1% o” for “1‰”, “6,” for “5,”

Structure (SMILES)	cardiac arrhythmia developed as consequence of CASQ2 mutant degradation (D307H CASQ2 mutant)	partial rescue of the mutant CASQ2, increase over not treated mice (D307H CASQ2 mutant) [%]	plasma membrane localization of V247M alpha-sarcoglycan mutant [1]	SERCA1 protein level (western blot, densitometry), rescue of R164H mutant (R164H mutant of SERCA1)	alpha-sarcoglycan protein level (western blot, densitometry), rescue of R98H mutant [2]
CC(C)C[C@H](NC(=O)[C@H](Cc1ccccc1)NC(=O)c1cnccn1)B(O)O [Velcade, bortezomib]	can be counteracted	20			
O=C(Nc1ncc(C(c2ccccc2Cl)N2CC[C@@H](O)C2)s1)C1(c2ccc3c(c2)OCO3)CC1 (stereo in doubt) [Compound D, 1-(benzo[d][1,3]dioxol-5-yl)-N-(5-((S)-(2-chlorophenyl) ((R)-3-hydroxypyrrolidin-1-yl)methyl)thiazol-2-yl)cyclopropanecarboxamide]			promoted the correct plasma membrane localization	promote the rescue	promote the rescue
CC(c1nc(N2CCCCC2)c2ccccc2n1)N1CCN(S(=O)(=O)c2ccc(Cl)cc2)CC1 (stereo not shown) [Compound C, 2-{1-[4-(4-Chloro-benzensulfonyl)-piperazin-1-yl]ethyl}-4-piperidin-1-yl-quinazoline]				promote the rescue	promote the rescue
CC(C)C[C@@H](C=O)NC(=O)[C@H](CC(C)C)NC(=O)[C@H](CC(C)C)NC(=O)OCc1ccccc1 [MG132, reference compound] (Cbz-Leu-Leu-Leu-aldehyde)			promoted V247M membrane localization		
COc1ccc(S(=O)(=O)N2CCN(C(C)c3nc(OC4CCCCC4)c4ccccc4n3)CC2)cc1 (stereo not shown) [Compound B, 4-Cyclohexyloxy-2-{1-[4-(4-methoxy-benzensulfonyl)-piperazin-1-yl]-ethyl}-quinazoline]				promote the rescue	promote the rescue
